Results reported in article PMC4450091 (JOM (Warrendale, Pa. : 1989), 2015).
Where no end group is shown, it is not given here.

Experiments:
[1] = system: Streptococcus mutans ATCC 25175; type: cell-based; conditions: ATCC 25175, 24 h
[2] = system: Escherichia coli ATCC 2592; type: cell-based; conditions: ATCC 2592, 24 h

Sequence | Minimum inhibitory concentration (MIC), S. mutans [1] | Minimum inhibitory concentration (MIC), E. coli [2]
SRPNGYGGSESSGGGLKLLKKLLKLLKKL [TiBPS2-AMP1] | 336.5 µM | 
HAYKQPVLSTPFGGGKWKRWWWWR [TiBPS3-AMP2] |  | 167.4 µM
RPRENRGRERGLGGGKWKRWWWWR [TiBPS1-AMP2] |  | 80.8 µM
